# Source: patent US20090227600A1, “4-(PYRAZINE-2-YL) -PYRROLIDINE -2-CARBOXYLIC ACID COMPOUNDS AND DERIVATIVES THEREOF AS HEPATITIS C VIRUS INHIBITORS” (priority 2004, published 2009)
# Biological target: T1, HCV RNA Polymerase, recombinant full-length NS5B, genotype 1b (Hepatitis C virus genotype 1b, UniProt Q9WMX2)
# T1 construct: Recombinant full-length NS5B; made in house
# Assay: In vitro HCV RNA-dependent RNA polymerase inhibition assay, genotype 1b full-length enzyme
# Assay type: biochemical, HCV genotype 1b
# Settings: genotype 1b full-length NS5B enzyme
# Procedure: Incorporation of [^33P]-GMP into RNA was followed by absorption of the biotin labelled RNA polymer by streptavidin containing SPA beads. A synthetic template consisting of biotinylated 13mer-oligoG hybridised to polyrC was used as a homopolymer substrate.
# b) Genotype 1b Full-Length Enzyme
# Reaction Conditions were 0.5 μM [^33P]-GTP (20 Ci/mMol), 1 mM Dithiothreitol, 20 mM MgCl2, 5 mM MnCl2, 20 mM Tris-HCl, pH7.5, 1.6 μg/mL polyC/0.256 μM biotinylated oligoG13, 10% glycerol, 0.01% NP-40, 0.2 u/μL RNasin and 50 mM NaCl.
# HCV RNA Polymerase (Recombinant full-length NS5B (Lohmann et al, J. Virol. 71 (11), 1997, 8416. ‘Biochemical properties of hepatitis C virus NS5B RNA-dependent RNA polymerase and identification of amino acid sequence motifs essential for enzymatic activity’) expressed in baculovirus and purified to homogeneity) was added to 4 nM final concentration.
# 5× concentrated assay buffer mix was prepared using 1M MnCl2 (0.25 mL), glycerol (2.5 mL), 10% NP-40 (0.025 mL) and Water (7.225 mL), Total 10 mL.
# 2× concentrated enzyme buffer contained 1M-Tris-HCl, pH7.5 (0.4 mL), 5M NaCl (0.2 mL), 1M-MgCl2 (0.4 mL), glycerol (1 mL), 10% NP-40 (10 μL), 1M DTT (20 μL) and water (7.97 mL), Total 10 mL.
# Substrate Mix was prepared using 5× Concentrated assay Buffer mix (4 μL), [^33P]-GTP (10 μCi/μL, 0.02 μL), 25 μM GTP (0.4 μL), 40 u/μL RNasin (0.1 μL), 20 μg/mL polyrC/biotinylated-oligoG (1.6 μL), and Water (3.94 μL), Total 10 μL.
# Enzyme Mix was prepared by adding 1 mg/ml full-length NS5B polymerase (1.5 μL) to 2.81 mL 2×-concentrated enzyme buffer.
# The Assay was set up using compound (1 μL), Substrate Mix (10 μL), and Enzyme Mix (added last to start reaction) (10 μL), Total 21 μL.
# The reaction was performed in a U-bottomed, white, 96-well plate. The reaction was mixed on a plate-shaker, after addition of the Enzyme, and incubated for 1 h at 22° C. After this time, the reaction was stopped by addition of 40 μL 1.875 mg/ml streptavidin SPA beads in 0.1 M EDTA. The beads were incubated with the reaction mixture for 1 h at 22° C. after which 120 μL 0.1 M EDTA in PBS was added. The plate was sealed, mixed centrifuged and incorporated radioactivity determined by counting in a Trilux (Wallac) or Topcount (Packard) Scintillation Counter.
# After subtraction of background levels without enzyme, any reduction in the amount of radioactivity incorporated in the presence of a compound, compared to that in the absence, was taken as a measure of the level of inhibition. Ten concentrations of compounds were tested in three- or fivefold dilutions. From the counts, percentage of inhibition at highest concentration tested or IC50s for the compounds were calculated using GraFit 3, GraFit 4 or GraFit 5 (Erithacus Software Ltd.) software packages or a data evaluation macro for Excel based on XLFit Software (IDBS).
# T1 sequence (Q9WMX2 2420-3010): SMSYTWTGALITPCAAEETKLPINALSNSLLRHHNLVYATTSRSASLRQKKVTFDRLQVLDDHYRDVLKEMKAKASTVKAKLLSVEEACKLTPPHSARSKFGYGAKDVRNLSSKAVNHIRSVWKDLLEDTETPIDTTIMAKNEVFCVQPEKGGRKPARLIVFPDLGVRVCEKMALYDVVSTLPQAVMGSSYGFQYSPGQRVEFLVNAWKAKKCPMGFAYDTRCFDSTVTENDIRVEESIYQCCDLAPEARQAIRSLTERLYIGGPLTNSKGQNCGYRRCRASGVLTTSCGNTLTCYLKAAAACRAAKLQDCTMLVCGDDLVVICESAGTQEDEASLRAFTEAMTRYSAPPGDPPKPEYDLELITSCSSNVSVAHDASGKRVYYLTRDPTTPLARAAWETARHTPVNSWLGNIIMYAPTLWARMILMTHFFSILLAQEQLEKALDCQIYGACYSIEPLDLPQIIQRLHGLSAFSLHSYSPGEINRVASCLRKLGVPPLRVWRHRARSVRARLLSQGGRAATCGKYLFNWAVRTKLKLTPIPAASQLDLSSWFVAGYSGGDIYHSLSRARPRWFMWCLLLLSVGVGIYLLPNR
row,Structure (SMILES),IC50
1,"COc1cc(C(=O)N2[C@@H](c3nccs3)[C@@H](c3cnccn3)C[C@@]2(CC(C)C)C(=O)O)ccc1C(C)(C)C (racemic) [Compound A, rel-(2S,4S,5R)-2-Isobutyl-1-(4-tert-butyl-3-methoxybenzoyl)-4-(pyrazin-2-yl)-5-(1,3-thiazol-2-yl)pyrrolidine-2-carboxylic acid, reference compound]",100 to 500 nM
2,"COc1cc(C(=O)N2[C@@H](c3nccs3)[C@@H](c3cnccn3)C[C@@]2(Cc2ccccn2)C(=O)O)ccc1C(C)(C)C (racemic) [Compound C, rel-(2R,4S,5R)-1-(4-tert-Butyl-3-methoxybenzoyl)-2-(pyridin-2-ylmethyl)-4-(pyrazin-2-yl)-5-(1,3-thiazol-2-yl)pyrrolidine-2-carboxylic acid, reference compound]",100 to 500 nM
3,"COc1cc(C(=O)N2[C@@H](c3nccs3)[C@@H](c3cnccn3)C[C@@]2(Cc2c[nH]cn2)C(=O)O)ccc1C(C)(C)C (racemic) [Compound D, rel-(2R,4S,5R)-1-(4-tert-Butyl-3-methoxybenzoyl)-2-(1H-imidazol-4-yl-methyl)-4-(pyrazin-2-yl)-5-(1,3-thiazol-2-yl)-pyrrolidine-2-carboxylic acid, reference compound]",100 to 500 nM
4,"COc1cc(C(=O)N2[C@@H](c3cncs3)[C@@H](c3cnccn3)C[C@@]2(CCSC)C(=O)O)ccc1C(C)(C)C (racemic) [Compound E, rel-(2R,4S,5R)-1-(4-tert-Butyl-3-methoxybenzoyl)-2-(2-(methylthio)ethyl)-4-(pyrazin-2-yl)-5-(1,3-thiazol-5-yl)-pyrrolidine-2-carboxylic acid, reference compound]",100 to 500 nM
5,"COc1cc(C(=O)N2[C@@H](c3nccs3)[C@@H](c3cnccn3)C[C@@]2(CCS(C)(=O)=O)C(=O)O)ccc1C(C)(C)C (racemic) [Compound F, rel-(2R,4S,5R)-1-(4-tert-Butyl-3-methoxybenzoyl)-2-(2-(methylsulphonyl)ethyl)-4-pyrazin-2-yl-5-(1,3-thiazol-2-yl)-pyrrolidine-2-carboxylic acid, reference compound]",> 500 nM
6,"COc1cc(C(=O)N2[C@@H](c3nccs3)[C@@H](c3cnccn3)C[C@@]2(Cc2ccccc2)C(=O)O)ccc1C(C)(C)C (racemic) [Compound G, rel-(2R,4S,5R)-1-(4-tert-Butyl-3-methoxybenzoyl)-2-(phenylmethyl)-4-(pyrazin-2-yl)-5-(1,3-thiazol-2-yl)pyrrolidine-2-carboxylic acid, reference compound]",100 to 500 nM
7,"COc1cc(C(=O)N2[C@@H](c3nccs3)[C@@H](c3cnccn3)C[C@@]2(Cc2cscn2)C(=O)O)ccc1C(C)(C)C (racemic) [Example 1, rel-(2R,4S,5R)-1-(3-Methoxy-4-tert-butylbenzoyl)-4-(pyrazin-2-yl)-2-(1,3-thiazol-4-ylmethyl)-5-(1,3-thiazol-2-yl)pyrrolidine-2-carboxylic acid]",< 100 nM
8,"COc1cc(C(=O)N2[C@@H](c3nccs3)[C@@H](c3cnccn3)C[C@@]2(Cc2nccs2)C(=O)O)ccc1C(C)(C)C (racemic) [Example 3, rel-(2R,4S,5R)-1-(3-Methoxy-4-tert-butylbenzoyl)-4-(pyrazin-2-yl)-2-(1,3-thiazol-2-ylmethyl)-5-(1,3-thiazol-2-yl)pyrrolidine-2-carboxylic acid]",< 100 nM
9,"COc1cc(C(=O)N2[C@@H](c3ncc(C)s3)[C@@H](c3cnccn3)C[C@@]2(Cc2ccsn2)C(=O)O)ccc1C(C)(C)C (racemic) [Example 5, rel-(2R,4S,5R)-1-(3-Methoxy-4-tert-butylbenzoyl)-5-(5-methyl-1,3-thiazol-2-yl)-4-(pyrazin-2-yl)-2-(1,2-thiazol-3-ylmethyl)pyrrolidine-2-carboxylic acid]",< 100 nM
10,"COc1cc(C(=O)N2[C@@H](c3nccs3)[C@@H](c3cnccn3)C[C@@]2(Cc2ccsn2)C(=O)O)ccc1C(C)(C)C (racemic) [Example 7, rel-(2R,4S,5R)-1-(3-Methoxy-4-tert-butylbenzoyl)-4-(pyrazin-2-yl)-2-(1,2-thiazol-3-ylmethyl)-5-(1,3-thiazol-2-yl)pyrrolidine-2-carboxylic acid]",< 100 nM
11,"COc1cc(C(=O)N2[C@@H](c3ncc(C)s3)[C@@H](c3cnccn3)C[C@@]2(Cn2cccn2)C(=O)O)ccc1C(C)(C)C (racemic) [Example 9, rel-(2R,4S,5R)-1-(3-Methoxy-4-tert-butylbenzoyl)-5-(5-methyl-1,3-thiazol-2-yl)-4-(pyrazin-2-yl)-2-(1H-pyrazol-1-ylmethyl)pyrrolidine-2-carboxylic acid]",< 100 nM
12,"COc1cc(C(=O)N2[C@@H](c3nccs3)[C@@H](c3cnccn3)C[C@@]2(Cn2cccn2)C(=O)O)ccc1C(C)(C)C (racemic) [Example 11, rel-(2R,4S,5R)-1-(3-Methoxy-4-tert-butylbenzoyl)-4-(pyrazin-2-yl)-2-(1H-pyrazol-1-ylmethyl)-5-(1,3-thiazol-2-yl)pyrrolidine-2-carboxylic acid]",< 100 nM
13,"COc1cc(C(=O)N2[C@@H](c3ncc(C)s3)[C@@H](c3cnccn3)C[C@@]2(Cc2nccs2)C(=O)O)ccc1C(C)(C)C (racemic) [Example 13, rel-(2R,4S,5R)-1-(3-Methoxy-4-tert-butylbenzoyl)-5-(5-methyl-1,3-thiazol-2-yl)-4-(pyrazin-2-yl)-2-(1,3-thiazol-2-ylmethyl)pyrrolidine-2-carboxylic acid]",< 100 nM
14,"COc1cc(C(=O)N2[C@@H](c3ncc(C)s3)[C@@H](c3cnccn3)C[C@@]2(Cc2cscn2)C(=O)O)ccc1C(C)(C)C (racemic) [Example 15, rel-(2R,4S,5R)-1-(3-Methoxy-4-tert-butylbenzoyl)-5-(5-methyl-1,3-thiazol-2-yl)-4-(pyrazin-2-yl)-2-(1,3-thiazol-4-ylmethyl)pyrrolidine-2-carboxylic acid]",< 100 nM
15,"COc1cc(C(=O)N2[C@@H](c3nccs3)[C@@H](c3cnccn3)C[C@@]2(CC(C)C)C(=O)O)ccc1C(C)(C)C (single isomer, unassigned; enantiomer a) [Compound B, reference compound]",> 500 nM
16,"COc1cc(C(=O)N2[C@@H](c3nccs3)[C@@H](c3cnccn3)C[C@@]2(Cc2cscn2)C(=O)O)ccc1C(C)(C)C (single isomer, unassigned; enantiomer a) [Example 2]",< 100 nM
17,"COc1cc(C(=O)N2[C@@H](c3nccs3)[C@@H](c3cnccn3)C[C@@]2(Cc2nccs2)C(=O)O)ccc1C(C)(C)C (single isomer, unassigned; enantiomer a) [Example 4]",< 100 nM
18,"COc1cc(C(=O)N2[C@@H](c3ncc(C)s3)[C@@H](c3cnccn3)C[C@@]2(Cc2ccsn2)C(=O)O)ccc1C(C)(C)C (single isomer, unassigned; enantiomer a) [Example 6]",< 100 nM
19,"COc1cc(C(=O)N2[C@@H](c3nccs3)[C@@H](c3cnccn3)C[C@@]2(Cc2ccsn2)C(=O)O)ccc1C(C)(C)C (single isomer, unassigned; enantiomer a) [Example 8]",< 100 nM
20,"COc1cc(C(=O)N2[C@@H](c3ncc(C)s3)[C@@H](c3cnccn3)C[C@@]2(Cn2cccn2)C(=O)O)ccc1C(C)(C)C (single isomer, unassigned; enantiomer a) [Example 10]",< 100 nM
21,"COc1cc(C(=O)N2[C@@H](c3nccs3)[C@@H](c3cnccn3)C[C@@]2(Cn2cccn2)C(=O)O)ccc1C(C)(C)C (single isomer, unassigned; enantiomer a) [Example 12]",< 100 nM
22,"COc1cc(C(=O)N2[C@@H](c3ncc(C)s3)[C@@H](c3cnccn3)C[C@@]2(Cc2nccs2)C(=O)O)ccc1C(C)(C)C (single isomer, unassigned; enantiomer a) [Example 14]",< 100 nM
23,"COc1cc(C(=O)N2[C@@H](c3ncc(C)s3)[C@@H](c3cnccn3)C[C@@]2(Cc2cscn2)C(=O)O)ccc1C(C)(C)C (single isomer, unassigned; enantiomer a) [Example 16]",< 100 nM
